The values below come from patent US5238926A, “Anti-fungal agents” (priority 1992, dated 1993).

Values after ≈ are worked out from the molar mass of the structure shown.

The nature of experiment [1]: In vitro anti-fungal activity, microtiter minimum inhibitory concentration (MIC) test, sensitive strains (MIC-S). It counts as cell-based. Particulars: 48 h, pH 5.4, read-out: MIC-S. As for the experimental part:
(§1) The minimum inhibitory concentrations (MIC-R and MIC-S) were determined in accordance with the procedure set forth just below.
(§2) In vitro anti-fungal activity was determined in microtiter minimum inhibitory concentration (MIC) tests using Yeast Nitrogen […] (YNB without amino acids, Difco., Detroit, Mich.) at pH 5.4. Yeasts were grown overnight in Sabouraud Dextrose Broth. at 28° C. with shaking, and concentrations adjusted in sterile saline using a spectrophoptometer at 540 mμ. Compounds were dissolved in various vehicles and diluted in media to twice the final concentrations. The Cetus Pro/Pette system was used to serially dilute 50 μl in round bottom 96 well plates (Falcon, Lincoln Park, NJ.). The turbidometrically adjusted yeast suspensions were diluted 1:3,000 in YNB. These dilutions when added to the wells, produced a final inoculum of 3×10^3 /ml. Plates were incubated at 37° C. for 48 hours. MICs were defined as the lowest concentrations of compound that prevented visible growth. MICs were taken against the following organisms and expressed in the table above as the geometric mean. MIC-R and MIC-S mean respectively, MICs taken against resistant and sensitive strains.
Candida parapsilosis C67
Candida tropicalis C112
Torulopsis glabrata C95
Candida pseudotropicalis C967
Candida gullermondii C137
Sacchararomyces mutant C147

Experiment [2] has as its system Resistant Strains (Candida albicans C79, C6, C8, C31, C54, C70, C104, C138, C140; Candida stellatoidea C45). The experiment is described as follows: In vitro anti-fungal activity, microtiter minimum inhibitory concentration (MIC) test, resistant strains (MIC-R). The class given is cell-based. Particulars: 48 h, pH 5.4, read-out: MIC-R. As to the method:
as §1, §2
Candida stellatoidea C45

A word on the MIC: it is the lowest concentration found to suppress growth.

For `CCCCCCCCCCCCNC(=O)[C@@H](NC(=O)[C@@H](N)CC[S+](C)[O-])[C@H]1O[C@@H](n2ccc(=O)[nH]c2=O)[C@H](O)[C@@H]1O` (stereo partly shown), the MIC in experiment [1] and in experiment [2] was 181 µg/mL (≈ 301 µM) each time.

With `CCCCCCCCCCCCNC(=O)[C@@H](NC(=O)[C@@H](N)C(C)CSC)[C@H]1O[C@@H](n2ccc(=O)[nH]c2=O)[C@H](O)[C@@H]1O` (stereo partly shown), the minimal inhibitory concentration (MIC) in experiment [1] stood at 34 µg/mL (≈ 56.7 µM); in experiment [2] it was 23 µg/mL (≈ 38.3 µM).

With `CCCCCCCCCCCCNC(=O)[C@@H](NC(=O)[C@@H](N)CCOC)[C@H]1O[C@@H](n2ccc(=O)[nH]c2=O)[C@H](O)[C@@H]1O`, the MIC in experiment [1] is 111 µg/mL (≈ 195 µM); in experiment [2], 52 µg/mL (≈ 91.3 µM).

Consider `CCCCCCCCCCCCNC(=O)[C@@H](NC(=O)[C@@H](N)CSCc1ccccc1)[C@H]1O[C@@H](n2ccc(=O)[nH]c2=O)[C@H](O)[C@@H]1O`, for which the MIC in experiment [1] was above 147 µg/mL; in experiment [2], 111 µg/mL (≈ 171 µM).

For the compound `CCCCCCCCCCC(N)C(=O)N[C@H](C(N)=O)[C@H]1O[C@@H](n2ccc(=O)[nH]c2=O)[C@H](O)[C@@H]1O` (stereo partly shown), the MIC in experiment [1] and in experiment [2] was above 256 µg/mL each time.

In the case of `CCCCCCCCCCCCNC(=O)[C@@H](NC(=O)[C@@H](N)CCCC)[C@H]1O[C@@H](n2ccc(=O)[nH]c2=O)[C@H](O)[C@@H]1O`, the figures for the minimal inhibitory concentration (MIC) in experiment [1] and in experiment [2] were 19.7 µg/mL (≈ 34.7 µM) and 13 µg/mL (≈ 22.9 µM), respectively.

In the case of `CCCCCCCCCCCCNC(=O)[C@@H](NC(=O)C1(N)CC2CCC1C2)[C@H]1O[C@@H](n2ccc(=O)[nH]c2=O)[C@H](O)[C@@H]1O` (stereo partly shown), the MIC in experiment [1] came out at 315 µg/mL (≈ 532 µM); in experiment [2], 104 µg/mL (≈ 176 µM).

Consider `C=C[C@@H](C)[C@H](N)C(=O)N[C@H](C(=O)NCCCCCCCCCCCC)[C@H]1O[C@@H](n2ccc(=O)[nH]c2=O)[C@H](O)[C@@H]1O` [6'-dodecylamido-5-N-[2-S-amino-3-R-methyl-4-pentenoyl]-UPOC], for which the results for the MIC in experiment [1] and in experiment [2] were 26 µg/mL (≈ 46 µM) and 18 µg/mL (≈ 31.8 µM), respectively.
